Experimental data reported in patent publication US6914045B2, “Glycopeptide antibiotics” (Wyeth Holdings Corporation, priority 2001, dated 2005).
In brackets after ≈: the same amount, converted by molar mass.

What was measured:
Assay in all cases: in vitro antibacterial evaluation, MIC by broth dilution
Assay type in all cases: cell-based
Enterococcus sp. = details: broth dilution, 18 hours at 35° C.
Procedure, shortened: (§1)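 Broth dilution per NCCLS standard M7-A2 in Muller-Hinton II […], with an inoculum of 5×10^5 CFU/mL and antibiotic spanning 64-0.06 μg/mL. The MIC is the lowest concentration that inhibits growth of the organism.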

Streptococcus sp. = details: broth dilution, 18 hours at 35° C.
Procedure, shortened: as §1

Staphylococcus sp. = details: broth dilution, 18 hours at 35° C.
Procedure, shortened: as §1

Escherichia coli = details: 18 hours at 35° C.

MIC Enterococcus avium (GC 4558) (Enterococcus sp.): 16 µg/mL (≈ 11 µM) | MIC Enterococcus faecalis (ATCC 29212) (Enterococcus sp.): 16 µg/mL (≈ 11 µM) | MIC Enterococcus faecalis (GC 2242) (Enterococcus sp.): 16 µg/mL (≈ 11 µM) | MIC Enterococcus faecalis (GC 2691) (Enterococcus sp.): 16 µg/mL (≈ 11 µM) | MIC Enterococcus faecalis (GC 3059) (Enterococcus sp.): 32 µg/mL (≈ 21.9 µM) | MIC Enterococcus faecalis (GC 4552) (Enterococcus sp.): 32 µg/mL (≈ 21.9 µM) | MIC Enterococcus faecalis (GC 4553) (Enterococcus sp.): 32 µg/mL (≈ 21.9 µM) | MIC Enterococcus faecalis (GC 4554) (Enterococcus sp.): 32 µg/mL (≈ 21.9 µM) | MIC Enterococcus faecalis (GC 6189) (Enterococcus sp.): 16 µg/mL (≈ 11 µM) | MIC Enterococcus faecium (GC 2243) (Enterococcus sp.): 16 µg/mL (≈ 11 µM) | MIC Enterococcus faecium (GC 4556) (Enterococcus sp.): 32 µg/mL (≈ 21.9 µM) | MIC Enterococcus faecium (GC 4557) (Enterococcus sp.): 4 µg/mL (≈ 2.74 µM) | MIC Enterococcus faecalis (ATCC 29212) (Enterococcus sp.; strain ATCC 29212): 16 µg/mL (≈ 11 µM) | MIC Enterococcus faecium (GC 2243) (Enterococcus sp.; strain GC 2243): 16 µg/mL (≈ 11 µM) | MIC Enterococcus faecalis (GC 4552) (Enterococcus sp.; strain GC 4552): 32 µg/mL (≈ 21.9 µM) | MIC Enterococcus faecalis (GC 4553) (Enterococcus sp.; strain GC 4553): 32 µg/mL (≈ 21.9 µM) | MIC Enterococcus faecalis (GC 4554) (Enterococcus sp.; strain GC 4554): 32 µg/mL (≈ 21.9 µM) | MIC Enterococcus faecium (GC 4556) (Enterococcus sp.; strain GC 4556): 32 µg/mL (≈ 21.9 µM) | MIC Enterococcus faecium (GC 4557) (Enterococcus sp.; strain GC 4557): 4 µg/mL (≈ 2.74 µM) | MIC Enterococcus avium (GC 4558) (Enterococcus sp.; strain GC 4558): 16 µg/mL (≈ 11 µM) | MIC Enterococcus faecalis (GC 6189) (Enterococcus sp.; strain GC 6189): 16 µg/mL (≈ 11 µM) | MIC Enterococcus faecalis (GC 2242) (Enterococcus sp.; inoculum 5×10^5 CFU/mL, strain GC 2242): 16 µg/mL (≈ 11 µM) | MIC Enterococcus faecalis (GC 2691) (Enterococcus sp.; inoculum 5×10^5 CFU/mL, strain GC 2691): 16 µg/mL (≈ 11 µM) | MIC Enterococcus faecalis (GC 3059) (Enterococcus sp.; inoculum 5×10^5 CFU/mL, strain GC 3059): 32 µg/mL (≈ 21.9 µM) | MIC Streptococcus agalactiae (GC 4564) (Streptococcus sp.): 2 µg/mL (≈ 1.37 µM) | MIC Streptococcus pneumoniae (ATCC 6301) (Streptococcus sp.): 1 µg/mL (≈ 0.685 µM) | MIC Streptococcus pneumoniae (GC 1894) (Streptococcus sp.): 0.5 µg/mL (≈ 0.343 µM) | MIC Streptococcus pneumoniae (GC 4565) (Streptococcus sp.): 1 µg/mL (≈ 0.685 µM) | MIC Streptococcus pyogenes (GC 4563) (Streptococcus sp.): 1 µg/mL (≈ 0.685 µM) | MIC Streptococcus pneumoniae (ATCC 6301) (Streptococcus sp.; inoculum 5×10^5 CFU/mL, strain ATCC 6301): 1 µg/mL (≈ 0.685 µM) | MIC Streptococcus pneumoniae (GC 1894) (Streptococcus sp.; inoculum 5×10^5 CFU/mL, strain GC 1894): 0.5 µg/mL (≈ 0.343 µM) | MIC Streptococcus pyogenes (GC 4563) (Streptococcus sp.; inoculum 5×10^5 CFU/mL, strain GC 4563): 1 µg/mL (≈ 0.685 µM) | MIC Streptococcus agalactiae (GC 4564) (Streptococcus sp.; inoculum 5×10^5 CFU/mL, strain GC 4564): 2 µg/mL (≈ 1.37 µM) | MIC Streptococcus pneumoniae (GC 4565) (Streptococcus sp.; inoculum 5×10^5 CFU/mL, strain GC 4565): 1 µg/mL (≈ 0.685 µM) | MIC Coagulase Negative Staphylococcus (GC 4547) (Staphylococcus sp.): 2 µg/mL (≈ 1.37 µM) | MIC Coagulase Negative Staphylococcus (GC 4548) (Staphylococcus sp.): 2 µg/mL (≈ 1.37 µM) | MIC Coagulase Negative Staphylococcus (GC 4549) (Staphylococcus sp.): 2 µg/mL (≈ 1.37 µM) | MIC Coagulase Negative Staphylococcus (GC 4551) (Staphylococcus sp.): 4 µg/mL (≈ 2.74 µM) | MIC Coagulase Negative Staphylococcus (GC 6257) (Staphylococcus sp.): 1 µg/mL (≈ 0.685 µM) | MIC Staphylococcus aureus (ATCC 29213) (Staphylococcus sp.): 4 µg/mL (≈ 2.74 µM) | MIC Staphylococcus aureus (GC 1131) (Staphylococcus sp.): 4 µg/mL (≈ 2.74 µM) | MIC Staphylococcus aureus (GC 3051) (Staphylococcus sp.): 4 µg/mL (≈ 2.74 µM) | MIC Staphylococcus aureus (GC 3053) (Staphylococcus sp.): 8 µg/mL (≈ 5.48 µM) | MIC Staphylococcus aureus (GC 4541) (Staphylococcus sp.): 4 µg/mL (≈ 2.74 µM) | MIC Staphylococcus aureus (GC 4542) (Staphylococcus sp.): 4 µg/mL (≈ 2.74 µM) | MIC Staphylococcus aureus (GC 4544) (Staphylococcus sp.): 8 µg/mL (≈ 5.48 µM) | MIC Staphylococcus aureus (GC 4545) (Staphylococcus sp.): 2 µg/mL (≈ 1.37 µM) | MIC Staphylococcus aureus-SMITH (GC 4543) (Staphylococcus sp.): 4 µg/mL (≈ 2.74 µM) | MIC Staphylococcus aureus (ATCC 29213) (Staphylococcus sp.; strain ATCC 29213): 4 µg/mL (≈ 2.74 µM) | MIC Staphylococcus aureus (GC 1131) (Staphylococcus sp.; strain GC 1131): 4 µg/mL (≈ 2.74 µM) | MIC Staphylococcus aureus (GC 3051) (Staphylococcus sp.; strain GC 3051): 4 µg/mL (≈ 2.74 µM) | MIC Staphylococcus aureus (GC 3053) (Staphylococcus sp.; strain GC 3053): 8 µg/mL (≈ 5.48 µM) | MIC Staphylococcus aureus (GC 4541) (Staphylococcus sp.; strain GC 4541): 4 µg/mL (≈ 2.74 µM) | MIC Staphylococcus aureus (GC 4542) (Staphylococcus sp.; strain GC 4542): 4 µg/mL (≈ 2.74 µM) | MIC Staphylococcus aureus-SMITH (GC 4543) (Staphylococcus sp.; strain GC 4543): 4 µg/mL (≈ 2.74 µM) | MIC Staphylococcus aureus (GC 4544) (Staphylococcus sp.; strain GC 4544): 8 µg/mL (≈ 5.48 µM) | MIC Staphylococcus aureus (GC 4545) (Staphylococcus sp.; strain GC 4545): 2 µg/mL (≈ 1.37 µM) | MIC Coagulase Negative Staphylococcus (GC 4547) (Staphylococcus sp.; strain GC 4547): 2 µg/mL (≈ 1.37 µM) | MIC Coagulase Negative Staphylococcus (GC 4548) (Staphylococcus sp.; strain GC 4548): 2 µg/mL (≈ 1.37 µM) | MIC Coagulase Negative Staphylococcus (GC 4549) (Staphylococcus sp.; strain GC 4549): 2 µg/mL (≈ 1.37 µM) | MIC Coagulase Negative Staphylococcus (GC 4551) (Staphylococcus sp.; strain GC 4551): 4 µg/mL (≈ 2.74 µM) | MIC Coagulase Negative Staphylococcus (GC 6257) (Staphylococcus sp.; strain GC 6257): 1 µg/mL (≈ 0.685 µM) | MIC Escherichia coli (ATCC 25922) (Escherichia coli): >64 µg/mL | MIC Escherichia coli (GC 4559) (Escherichia coli): >64 µg/mL | MIC Escherichia coli (GC 4560) (Escherichia coli): 2 µg/mL (≈ 1.37 µM)
Compound: CCOc1cc(COCC2OC(OC3C(CO)OC(Oc4ccc(CC5NC(=O)C(C(C)c6ccccc6)NC(=O)CNC(=O)C(CO)NC(=O)C(C(O)C6CNC(=N)N6C6OC(CO)C(O)C(O)C6O)NC(=O)C(C(O)C6CNC(=N)N6)NC5=O)cc4)C(O)C3O)C(O)C(O)C2O)ccc1OC (stereo not shown) [Example 238]
MIC Staphylococcus haemolyticus (GC 4546) (Staphylococcus sp.): 2 µg/mL (≈ 1.37 µM) | MIC Staphylococcus haemolyticus (GC 4546) (Staphylococcus sp.; strain GC 4546): 2 µg/mL (≈ 1.37 µM)
